The text below walks through data of ChEMBL document CHEMBL1201862, “PubChem BioAssay data set” (2004).

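Briefly, cells in 96-well plates were exposed to five compound concentrations for 48 h, and endpoints were estimated by linear interpolation. GI50: concentration for 50% inhibition of growth.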 Active and inactive are the calls of the source. Cut-off read from the data, not from the text of the source: active = GI50 up to about 1.1 µM and inactive = higher.

Among the test systems are OVCAR-4; OVCAR-8; NCI-H460; IGROV-1; SW-620; EKVX; SN12C; SK-MEL-28; RXF 393; CAKI-1; SNB-75; UACC-62; OVCAR-3; SK-MEL-2; Malme-3M; U-251; SK-MEL-5; NCI-H23; ACHN; M14.
Common to all, as to test: inhibition of tumour cell growth, NCI panel, 48 h

As to `C/C=C/C1=CC(=O)C(O)C1O` (stereo not given), the GI50 is 37.1 µM (inactive) in the experiment on OVCAR-4; 24.8 µM (inactive) in the experiment with OVCAR-8; 19.7 µM (inactive) in the experiment on NCI-H460; 35.6 µM (inactive) in the experiment on IGROV-1; 27.2 µM (inactive) with SW-620; 44.6 µM (inactive) in the experiment with EKVX. Moreover, the GI50 is 23.1 µM (inactive) in the experiment on SN12C; 30.9 µM (inactive) in the experiment with SK-MEL-28; 15.1 µM (inactive) in the experiment with RXF 393; 14.5 µM (inactive) with CAKI-1; 23.6 µM (inactive) in the experiment on SNB-75; 26.6 µM (inactive) in the experiment on UACC-62. For the same compound, the GI50 with OVCAR-3 was 24.5 µM (inactive); in the experiment with SK-MEL-2 it was 36.5 µM (inactive); with Malme-3M it was 27.1 µM (inactive); in the experiment on U-251 it was 44.8 µM (inactive); with SK-MEL-5, 28.4 µM (inactive); in the experiment on NCI-H23, 25.9 µM (inactive).
Take `Cc1ccc(S(=O)(=O)N2c3ccccc3[C@H]3CCc4c([nH]c5ccccc45)[C@H]32)cc1`: the GI50 with OVCAR-4 is 0.942 µM (active); in the experiment with OVCAR-8, > 100 µM (inactive); with NCI-H460 it was > 100 µM (inactive); with ACHN, > 100 µM (inactive); with IGROV-1 it was 0.789 µM (active); in the experiment on SW-620, > 100 µM (inactive). In addition, the GI50 was > 100 µM (inactive) in the experiment on EKVX; > 100 µM (inactive) in the experiment with SN12C; > 100 µM (inactive) in the experiment with SK-MEL-28; > 100 µM (inactive) in the experiment on RXF 393; 4.33 µM (inactive) with CAKI-1; > 100 µM (inactive) in the experiment with SNB-75. Further, the GI50 in the experiment on UACC-62 is > 100 µM (inactive); with M14, > 100 µM (inactive); with OVCAR-3 it was > 100 µM (inactive); with SK-MEL-2, > 100 µM (inactive); in the experiment with U-251, > 100 µM (inactive); in the experiment on SK-MEL-5, 32 µM (inactive). In addition, the GI50 with NCI-H23 is > 100 µM (inactive).
`Cc1ccc(/N=N/C(=N\NC(=O)c2ccc(C)cc2)c2ccc(N(CCC#N)CCC#N)cc2C)cc1`: the GI50 in the experiment with OVCAR-4 is 47.1 µM (inactive); with OVCAR-8, 17.7 µM (inactive); with NCI-H460, 23.8 µM (inactive); in the experiment with ACHN it was 46.7 µM (inactive); in the experiment on IGROV-1, 13.4 µM (inactive); with SW-620 it was 39 µM (inactive). Besides, the GI50 with EKVX is 43 µM (inactive); with SK-MEL-28 it was 10.3 µM (inactive); with RXF 393 it was 44.8 µM (inactive); with CAKI-1, 67 µM (inactive); in the experiment with SNB-75 it was 35.5 µM (inactive); in the experiment with UACC-62, 22.4 µM (inactive). The GI50 with M14 is 30 µM (inactive); with OVCAR-3, 26.2 µM (inactive); in the experiment on SK-MEL-2, 20.5 µM (inactive); in the experiment on U-251, 14.8 µM (inactive); in the experiment on SK-MEL-5 it was 4.69 µM (inactive); in the experiment on NCI-H23 it was 35.3 µM (inactive).
With `O=C(Nc1c(C(=O)NC2CCCCC2)[nH]c(=O)[nH]c1=O)c1ccc(Cl)cc1`, the GI50 in the experiment on OVCAR-4, in the experiment with OVCAR-8, with NCI-H460, in the experiment on ACHN, with IGROV-1 and in the experiment on SW-620 was > 100 µM (inactive) throughout. The GI50 in the experiment on EKVX is > 100 µM (inactive); in the experiment on SN12C, > 100 µM (inactive); in the experiment with SK-MEL-28 it was > 100 µM (inactive); in the experiment with RXF 393, 79.6 µM (inactive); in the experiment with CAKI-1, > 100 µM (inactive); with SNB-75 it was 22 µM (inactive). In addition, the GI50 in the experiment with UACC-62, in the experiment with M14, in the experiment with OVCAR-3, with Malme-3M and in the experiment on SK-MEL-5 was > 100 µM (inactive) each time.
For the compound `C=CC(C)C1(CCCOCc2ccccc2)C(=S)N2CCC3(CC24CCCC14)OCCO3` (stereo not given), the GI50 in the experiment on OVCAR-4 was 9.46 µM (inactive); in the experiment with OVCAR-8, 23.3 µM (inactive); with NCI-H460 it was 26.3 µM (inactive); in the experiment with ACHN, 9.84 µM (inactive); in the experiment on IGROV-1, > 100 µM (inactive); in the experiment on SW-620, 31.6 µM (inactive). Besides, the GI50 is > 100 µM (inactive) in the experiment on EKVX; 91.6 µM (inactive) in the experiment with SN12C; 14.3 µM (inactive) in the experiment with SK-MEL-28; 6.46 µM (inactive) with RXF 393; > 100 µM (inactive) in the experiment on CAKI-1; 0.0506 µM (active) in the experiment on SNB-75. Besides, the GI50 with UACC-62 was > 100 µM (inactive); with OVCAR-3, 6.76 µM (inactive); with SK-MEL-2, 12.2 µM (inactive); in the experiment on Malme-3M it was 47.5 µM (inactive); in the experiment on U-251, 34.1 µM (inactive); in the experiment on SK-MEL-5, 5.61 µM (inactive). Further, the GI50 in the experiment with NCI-H23 was 6.1 µM (inactive).
As to `COc1ccc(-c2c3c(nc4nc(SCCc5ccccc5)nc(N)c24)CCCC3)cc1OC`, the GI50 was 75.7 µM (inactive) in the experiment with OVCAR-4; > 100 µM (inactive) in the experiment on OVCAR-8; > 100 µM (inactive) in the experiment with NCI-H460; > 100 µM (inactive) in the experiment with ACHN; > 100 µM (inactive) in the experiment on IGROV-1; > 100 µM (inactive) in the experiment on SW-620. In addition, the GI50 with EKVX is > 100 µM (inactive); with SN12C, > 100 µM (inactive); with SK-MEL-28, > 100 µM (inactive); in the experiment with RXF 393, 24.9 µM (inactive); in the experiment on CAKI-1, > 100 µM (inactive); in the experiment on SNB-75, 20.5 µM (inactive). The GI50 with UACC-62, with M14, in the experiment with OVCAR-3, with Malme-3M, in the experiment on U-251 and in the experiment on SK-MEL-5 was > 100 µM (inactive) throughout. Also, the GI50 in the experiment with NCI-H23 was > 100 µM (inactive).
`O=C(NC1C=CCC2C(=O)N(c3ccccc3)C(=O)C12)OCc1ccccc1` (stereo not given): the GI50 with OVCAR-4, in the experiment on OVCAR-8, with NCI-H460, with ACHN, with IGROV-1 and in the experiment on SW-620 was > 100 µM (inactive) throughout. The GI50 with EKVX, with SN12C, in the experiment with SK-MEL-28, with RXF 393, with CAKI-1 and with SNB-75 was > 100 µM (inactive) in each case. Besides, the GI50 in the experiment on UACC-62 was > 100 µM (inactive); in the experiment on M14 it was > 100 µM (inactive); in the experiment on OVCAR-3, > 100 µM (inactive); in the experiment with SK-MEL-2, 57.7 µM (inactive); with U-251, > 100 µM (inactive); in the experiment on SK-MEL-5 it was > 100 µM (inactive). Further, the GI50 with NCI-H23 is > 100 µM (inactive).
As to `Cc1ccc(NC(=O)C(Cc2c[nH]c3ccccc23)NC(=O)Oc2ccccc2)cc1C` (stereo not given), the GI50 with OVCAR-4 was 44.3 µM (inactive); with OVCAR-8 it was 57.5 µM (inactive); with NCI-H460, 39.4 µM (inactive); with ACHN, 84.3 µM (inactive); in the experiment with IGROV-1 it was 30.5 µM (inactive); in the experiment on SW-620 it was > 100 µM (inactive). Further, the GI50 is 59.7 µM (inactive) with EKVX; 64.1 µM (inactive) with SN12C; > 100 µM (inactive) in the experiment with SK-MEL-28; 25.2 µM (inactive) with RXF 393; 53 µM (inactive) in the experiment on CAKI-1; 54.7 µM (inactive) in the experiment with UACC-62. For the same compound, the GI50 with M14 was 74.8 µM (inactive); with OVCAR-3 it was 34.8 µM (inactive); in the experiment on SK-MEL-2 it was 85.9 µM (inactive); with Malme-3M, 14.3 µM (inactive); in the experiment on U-251 it was 80.2 µM (inactive); in the experiment with SK-MEL-5 it was 44.1 µM (inactive). In addition, in the experiment with NCI-H23, the GI50 was > 100 µM (inactive).
Regarding `Cc1cccc(C(C)C)c1NC(=O)/C(Cc1c([N+](=O)[O-])cccc1[N+](=O)[O-])=N/NC(=O)CC#N`, the GI50 is > 100 µM (inactive) in the experiment with NCI-H460; > 100 µM (inactive) with ACHN; > 100 µM (inactive) in the experiment with IGROV-1; > 100 µM (inactive) in the experiment with SW-620; 7.05 µM (inactive) in the experiment with EKVX; > 100 µM (inactive) in the experiment with SK-MEL-28. Also, the GI50 with RXF 393, with CAKI-1, with SNB-75, in the experiment with UACC-62, with M14 and in the experiment with OVCAR-3 was > 100 µM (inactive) in each case. For the same compound, the GI50 in the experiment with SK-MEL-2, with Malme-3M and in the experiment with SK-MEL-5 was > 100 µM (inactive) in each case.
`Cc1csc(/N=C(/NCCN2CCOCC2)Nc2nc(C)cs2)n1`: the GI50 is > 100 µM (inactive) with OVCAR-4; > 100 µM (inactive) with OVCAR-8; > 100 µM (inactive) with NCI-H460; > 100 µM (inactive) in the experiment on IGROV-1; > 100 µM (inactive) in the experiment on SW-620; > 87.9 µM (inactive) with EKVX. For the same compound, the GI50 in the experiment on SN12C is > 100 µM (inactive); with SK-MEL-28, > 100 µM (inactive); with RXF 393, > 100 µM (inactive); in the experiment on CAKI-1, > 76.2 µM (inactive); in the experiment with SNB-75 it was > 63.2 µM (inactive); in the experiment with UACC-62 it was > 100 µM (inactive). Further, the GI50 in the experiment with OVCAR-3, with SK-MEL-2, in the experiment with Malme-3M, in the experiment with U-251, with SK-MEL-5 and with NCI-H23 was > 100 µM (inactive) in each case.
Turning to `CCOC(=O)NC(OCc1ccccc1)(C(=O)OC)C(F)(F)F` (stereo not given), the GI50 in the experiment on OVCAR-4, in the experiment on OVCAR-8, in the experiment with NCI-H460, with ACHN, in the experiment on IGROV-1 and with SW-620 was > 100 µM (inactive) throughout. For the same compound, the GI50 in the experiment with EKVX was > 100 µM (inactive); in the experiment on SN12C, > 100 µM (inactive); with SK-MEL-28 it was > 100 µM (inactive); in the experiment with RXF 393, > 100 µM (inactive); with CAKI-1, 8.2 µM (inactive); in the experiment on SNB-75, > 10 µM (inactive). Besides, the GI50 with UACC-62, with M14, in the experiment with OVCAR-3, in the experiment on SK-MEL-2, with U-251 and with SK-MEL-5 was > 100 µM (inactive) in each case. Also, in the experiment on NCI-H23, the GI50 is > 100 µM (inactive).
